2 compounds from patent US8053599B2, “Drug containing (2R)-2-propyloctanoic acid as the active ingredient” (Ono Pharmaceutical Co., Ltd., priority 2003, dated 2011) can be followed below.

Data set [1] in a line: solubility and behaviour in water. It is filed as physicochemical. The source says:
The present inventors have attempted to prepare a medicament comprising (2R)-2-propyloctanoic acid or a salt thereof in a high concentration, which is useful for the treatment of neurodegenerative diseases including cerebral infarction, and which can be formulated to an injection which can be conveniently administered to a patient, if necessary, by means of the dissolution or dilution operation. […] The inventors have conducted studies to solve these problems and have found as a result that (2R)-2-propyloctanoic acid can be dissolved in water in a high concentration by mixing it with a strong alkali such as sodium hydroxide. […] Moreover, the solution in a high concentration was difficult to be stored for a long period of time because of the appearance of insoluble allotrio within the solution under long-term storage in conventional glass containers. Thus, there are problems in using a drug which is sensitive to a change in the drug concentration or in the pH of the solution, leading to a change such as clouding. That is, there is in fact the risk of clouding of the drug, upon preparing an injection which can be administered to a patient, by direct manipulation of a person involved in medical services, for combined use with other agents, or during the action of intravascular administration to a patient. […]

A short description of data set [2]: confirmation test of micelle formation (fat staining with Sudan III, absorbance of supernatant). It is filed as physicochemical. The source says: The fat staining method includes, for example, a method of mixing a solution of a fat-soluble dye (for example, Sudan III, piacyanol chloride, Rhodamine 6G, etc.) with the solution under test, followed by centrifugation after a certain period of time, and measuring the absorbance of the supernatant which is inherent to the fat-soluble dye used. If the absorbance of the supernatant can be measured according to this test method, it implies that the fat-soluble dye is present within micelles, that is, micelles have been formed, and thus it is possible to determine that a micelle water dispersion liquid has been formed. It is also possible to define the critical concentration of micelle formation, that is, a critical micelle concentration (CMC), by means of such a test.
The critical micelle concentration cannot be exactly determined since it depends on the substance forming micelles, the type of co-existing ions and the concentration thereof, the ionic strength, and even on temperature. […]
Into a spitz made of glass, the Sudan III solution prepared in the above (2) (400 μL) was added, and ethanol was evaporated Each of the (2R)-2-propyloctanoic acid solutions of various concentrations prepared in the above (1) was added thereto, and the mixture was subjected to sonication and stirring. […] The absorbance of the supernatant was measured at a wavelength of 502 nm.

The next data set deals with dog. Description: single intravenous administration toxicity using a dog. The note with it: dose of 100 mg/kg. It is filed as in vivo.

Take `CCCCCC[C@@H](CCC)C(=O)[O-].[Na+]` [(2R)-2-propyloctanoic acid-sodium salt]: in data set [1] (dissolved in water), the “pH and clouding of solution in water” value was “has a high pH and is susceptible to clouding under slight fluctuations of the pH”.

For `CCCCCC[C@@H](CCC)C(=O)O` [(2R)-2-propyloctanoic acid], in data set [2] (aqueous medicament comprising about 1 to about 5 equivalents of basic sodium ion based on 1 equivalent of (2R)-2-propyloctanoic acid, room temperature), the critical micelle concentration is 20 to 25 mg/mL. In addition, in data set [2] (aqueous solution with trisodium phosphate dodecahydrate, Sudan III, left at room temperature for 1 day, absorbance at 502 nm), the “concentration at which micelle formation occurred” value is “about 20 mg/mL”. The “death after single intravenous administration” value with dog is given as “did not result in death”. Besides, in data set [1] (water), the solubility in water result was “insoluble and immiscible in water”.
